Assay results taken from paper PMC8682738, “Constrained peptides mimic a viral suppressor of RNA silencing” (Nucleic Acids Research, 2021).
Positions of bridges follow the written chain, without caps; N, C: chain ends. Non-standard residues stand in square brackets, D forms with d. Residues, ends and D or L forms follow the SMILES beside them. *: point of attachment. FITC = O=C1OC2(c3ccc(O)cc3Oc3cc(O)ccc32)c2ccc(NC(=S)*)cc21; R8 = C=CCCCCCC[C@@](C)(N)C(=O)O; S5 = C=CCCC[C@](C)(N)C(=O)O; AEEA = NCCOCCOCC(=O)O

Legend:
[1] = biological target: pal-RNA duplex; assay: ITC of N-terminally acetylated peptides with pal-RNA duplex; format: binding; conditions: for fold increased affinity compared to linear peptide wt33: unlabeled analogs, pal-RNA
Procedure: Isothermal titration calorimetry (ITC) was conducted using a MicroCal VP-ITC (Malvern Panalytical). Before measurement, oligonucleotide and peptide samples were dissolved in PBS and degassed using a ThermoVac (Malvern Panalytical) and heated to 30°C. N-terminally acetylated peptides (c = 3–12 μM) were then transferred into the sample cell and oligonucleotides (c = 12–72 μM) were transferred into the syringe. 35 Injections per measurement were performed at 30°C (8 μl injection volume, 2 s injection time, 180 s spacing, high feedback mode) with an initial delay of 60 s and a stirring speed of 307 rpm. Measurements were performed in triplicate. Using the MicroCal LLC ITC software (Origin; OriginLab Corporation), the heat associated with each injection was calculated by integrating the area under the curve in microcalories per second [μca/s] versus time [min] for each injection and then normalized to concentration. A ‘single set of identical binding sites’ model was used to fit the binding curves from which thermodynamic binding parameters (ΔG, ΔH, ΔS, N and Kd) were obtained.

[2] = tested on: endogenous miR-21; assay: Pull-down of miR-21 from K562 cells; format: cell-based, human; conditions: biotinylated peptide 10 μM, streptavidin beads, qRT-PCR, triplicate
Procedure: 2 × 10^6 K562 cells were incubated with N-terminally biotinylated peptides (c(peptide) = 10 μM, t = 2.5 h) for uptake on a rotating wheel at 37°C. The cells were extensively washed in PBS and lysed in lysis buffer (25 mM HEPES, pH 7.5, 150 mM NaCl, 0.05% IGEPAL CA-630, 1 mM EDTA) supplemented with 0.5 U/μl RNAse inhibitor (Superase-in, ThermoFisher). The lysate was cleared by centrifugation at 21 000 g at 4°C, an aliquot of the supernatant was removed and re-suspended in Trizol, while the remaining was incubated with streptavidin-coupled magnetic beads (Dynabeads M280, ThermoFisher) on a rotating wheel (2 h, 4°C). After magnetic separation and washing (3× in lysis buffer), the beads were re-suspended in 20 μl lysis buffer, re-suspended in Trizol (ThermoFisher), and 400 ng t-RNA was added per sample as a carrier. RNA was extracted from Trizol using the standard protocol and the qRT-PCR was performed according to a previously published protocol ([62]) using the primers h-miR21-3p-FW ([…]), h-miR21-3p-RV ([…]), h-miR21-5p-FW ([…]), h-miR21-5p-RV ([…]) in a CFX96 real-time machine (Bio-Rad). The relative enrichment was calculated as a ratio of copies in the immunoprecipitate over input normalized to the enrichment of the control peptide D1.

[3] = tested on: yeast transfer RNAs (t-RNAs); assay: EMSA with transfer RNA; format: binding, baker's yeast; conditions: fluorescein-labeled peptide 3 μM, t-RNA 9 μM
Procedure: (§1) Electrophoretic mobility shift assays (EMSAs) were performed using a Bio-Rad Mini-Protean gel system paired with a direct current (DC) power source (PowerPac™ HC, Bio-Rad). Typically, 6 μl solutions containing ds RNA (c = 3 μM) and fluorescein-labeled peptide (c = 6 μM) were incubated in binding buffer (10 mM Tris (pH 8.0), 0.5 mM EDTA, 12.5% glycerol and 150 mM KCl) at 4°C for 1 h. After incubation, bound RNA was resolved from peptide-free RNA using 10% non-denaturing polyacrylamide gels at 120 V in running buffer (25 mM Tris (pH 8.0), 200 mM glycine, 20 mM NaCl) at 4°C for 1 h. Visualization of fluorescent gel-bound species was conducted using a Typhoon Trio + fluorescence scanner (GE Healthcare Life Sciences). For nucleic acid visualization, gels were stained using 2 μl of SYBR™ gold nucleic acid gel dye (Molecular Probes) in 20 ml of TAE buffer (40 mM Tris, 1 mM EDTA, 20 mM acetic acid) for 45 min at RT before being visualized using a FluorChem™ gel documentation system (Alpha Innotech). To assess B3 binding to different ds RNA sequences (Supplementary Figure S20), 6 μl solutions containing hairpin RNA (c = 1 μM) and fluorescein-labeled B3 (c = 2 μM) were incubated in binding buffer (TAE and 10% glycerol) at RT for 1 h, and then resolved using 15% non-denaturing polyacrylamide gels (acrylamide/bis-acrylamide (19:1) in TAE) at 150 V in running buffer (TAE) at 4°C for 1.5 h. […]

[4] = tested on: pre-miR-21; assay: EMSA with pre-miR-21; format: binding; conditions: fluorescein-labeled peptide 6 μM, pre-miR-21 3 μM
Procedure: as §1

[5] = tested on: K562 human leukemia cells; assay: Peptide uptake by flow cytometry; format: cell-based; conditions: fluorescein-labeled peptide 1 μM, 90 min
Procedure: 2 × 10^6 K562 cells were plated per well in 48-well plates in presence of fluorescein-labeled peptides (c = 1 μM, 0.5% DMSO) in a total volume of 300 μl. After 90 min, cells were treated with proteinase K (2 μg·ml^−1) for 10 min to remove extracellular peptides. Cells were extensively washed and total uptake of labeled peptide was measured by flow cytometry (Cytoflex, Beckman Coulter with the CytExpert software version 2.3). For each peptide, 20 000 events per sample were collected with >85% viable cells (forward/side scatter) that were considered for analysis using a 525/40 nm filter. DMSO was used as a control to distinguish general DMSO-related and peptide-specific effects. Each experiment was performed in triplicate.

[6] = N-terminally acetylated peptide, PBS pH 7.4, 30°C, single set of identical binding sites model, triplicate, errors 1σ

**Q.** What does the source list for `CC(C)C[C@H](NC(=O)[C@]1(C)CCCC=CCCC[C@](C)(NC(=O)[C@H](CCC(=O)O)NC(=O)[C@H](CO)NC(=O)[C@@H]2CCCN2C(=O)[C@H](CO)NC(=O)[C@H](CCCCN)NC(=O)[C@H](Cc2c[nH]cn2)NC(=O)CNC(=O)[C@H](CCCNC(=N)N)NC(=O)[C@]2(C)CCCC=CCCC[C@](C)(NC(=O)[C@H](CCCCN)NC(=O)[C@H](Cc3c[nH]cn3)NC(=O)[C@H](CCCNC(=N)N)NC(=O)[C@H](CCCCN)NC(=O)[C@H](CCCNC(=N)N)NC(=O)[C@H](CCC(N)=O)NC(=O)[C@H](C)NC(=O)[C@H](CCC(N)=O)NC(=O)[C@H](CCCCN)NC(=O)[C@H](CCCCN)NC(=O)COCCOCCNC(=S)Nc3ccc4c(c3)C(=O)OC43c4ccc(O)cc4Oc4cc(O)ccc43)C(=O)N[C@@H](CC(N)=O)C(=O)N[C@@H](CCCNC(=N)N)C(=O)N[C@@H](CCCCN)C(=O)N2)C(=O)N[C@@H](CCCNC(=N)N)C(=O)N[C@@H](CCCNC(=N)N)C(=O)N[C@@H](CO)C(=O)N1)C(=O)N[C@@H](Cc1c[nH]c2ccccc12)C(=O)N[C@@H](Cc1c[nH]cn1)C(=O)N[C@@H](C)C(=O)N[C@@H](CCCNC(=N)N)C(N)=O` [B3] ({FITC-AEEA}-KKQAQRKRHK[S5]NRK[S5]RGHKSPSE[S5]RRS[S5]LWHAR-NH2; staple 11-15, 24-28)?
**A.** Kd [1, 6]: 0.07 µM; Kd ([1]; pal-RNA duplex): 0.07 ± 0.001 µM; fold increased affinity compared to linear peptide wt33 [1]: 17 fold; enrichment of miR-21 relative to control peptide D1 [2]: 35 fold; binding to yeast t-RNA mixture in EMSA [3]: did not observe binding; binding to pre-miR-21 in EMSA [4]: indicated pre–miRNA-binding

**Q.** How did the Kd [1, 6] turn out when `CC(C)C[C@@H]1NC(=O)[C@@](C)(NC(=O)[C@H](CO)NC(=O)[C@H](CCCNC(=N)N)NC(=O)[C@H](CCCNC(=N)N)NC(=O)[C@H](CCC(N)=O)NC(=O)[C@H](CCC(=O)O)NC(=O)[C@H](CO)NC(=O)[C@@H]2CCCN2C(=O)[C@H](CO)NC(=O)[C@H](CCCCN)NC(=O)[C@H](Cc2c[nH]cn2)NC(=O)CNC(=O)[C@H](CCCNC(=N)N)NC(=O)[C@H](CCC(=O)O)NC(=O)[C@H](CCCCN)NC(=O)[C@H](CCCNC(=N)N)NC(=O)[C@H](CC(N)=O)NC(=O)[C@]2(C)CCCC=CCCCCCC[C@@](C)(NC(=O)[C@H](CCC(N)=O)NC(=O)[C@H](CCCCN)NC(=O)[C@H](CCCCN)NC(=O)COCCOCCNC(=S)Nc3ccc4c(c3)C(=O)OC43c4ccc(O)cc4Oc4cc(O)ccc43)C(=O)N[C@@H](CCC(N)=O)C(=O)N[C@@H](CCCNC(=N)N)C(=O)N[C@@H](CCCCN)C(=O)N[C@@H](CCCNC(=N)N)C(=O)N[C@@H](Cc3c[nH]cn3)C(=O)N[C@@H](CCCCN)C(=O)N2)CCCC=CCCC[C@@](C)(C(=O)N[C@@H](CCCNC(=N)N)C(N)=O)NC(=O)[C@H](Cc2c[nH]cn2)NC(=O)[C@H](Cc2c[nH]c3ccccc23)NC1=O` [C1] ({FITC-AEEA}-KKQ[R8]QRKRHK[S5]NRKERGHKSPSEQRRS[S5]LWH[S5]R-NH2; staple 4-11, 28-32) was run?
**A.** 0.18 µM

**Q.** And the “fold increased affinity compared to linear peptide wt33” value [1]?
**A.** 7 fold

**Q.** And the “fold increase in uptake relative to wt33” value [5]?
**A.** 264 fold

**Q.** And the “enrichment of miR-21 relative to control peptide D1” value [2]?
**A.** enrichment

**Q.** What about the “binding to yeast t-RNA mixture in EMSA” value [3] of the same compound?
**A.** did not observe binding

**Q.** And the “binding to pre-miR-21 in EMSA” value [4]?
**A.** indicated pre–miRNA-binding

**Q.** Which “cellular uptake (in words)” value [5] does the source give for `CC(C)C[C@@H]1NC(=O)[C@H](CCC(=O)O)NC(=O)[C@H](CO)NC(=O)[C@@](C)(NC(=O)[C@H](CCCNC(=N)N)NC(=O)[C@H](CCC(N)=O)NC(=O)[C@H](CCC(=O)O)NC(=O)[C@H](CO)NC(=O)[C@@H]2CCCN2C(=O)[C@H](CO)NC(=O)[C@H](CCCCN)NC(=O)[C@H](Cc2c[nH]cn2)NC(=O)[C@]2(C)CCCC=CCCCCCC[C@@](C)(NC(=O)[C@H](Cc3c[nH]cn3)NC(=O)[C@H](CCCNC(=N)N)NC(=O)[C@H](CCCCN)NC(=O)[C@H](CCCNC(=N)N)NC(=O)[C@H](CCC(N)=O)NC(=O)[C@H](C)NC(=O)[C@H](CCC(N)=O)NC(=O)[C@H](CCCCN)NC(=O)[C@H](CCCCN)NC(=O)COCCOCCNC(=S)Nc3ccc4c(c3)C(=O)OC43c4ccc(O)cc4Oc4cc(O)ccc43)C(=O)N[C@@H](CC(C)C)C(=O)N[C@@H](CC(N)=O)C(=O)N[C@@H](CCCNC(=N)N)C(=O)N[C@@H](CCCCN)C(=O)N[C@@H](CCC(=O)O)C(=O)N[C@@H](CCCNC(=N)N)C(=O)N2)CCCC=CCCC[C@@](C)(C(=O)N[C@@H](Cc2c[nH]cn2)C(=O)N[C@@H](C)C(=O)N[C@@H](CCCNC(=N)N)C(N)=O)NC1=O` [D1] ({FITC-AEEA}-KKQAQRKRH[R8]LNRKER[S5]HKSPSEQR[S5]SEL[S5]HAR-NH2; staple 10-17, 26-30) here?
**A.** considerably enhanced cellular uptake
